Experimental data: patent US20240082342A1, “PEPTIDE THERAPEUTICS FOR INCREASING LUNG CELL VIABILITY” (BOARD OF REGENTS, THE UNIVERSITY OF TEXAS SYSTEM, priority 2018, published 2024)
“Also recorded” adds a separate entry of the source.

What was measured:
[1] = tested on: A2Cs and lungs of WT mice with CLP injury; experiment: Cecal ligation puncture (CLP) sepsis-induced ALI in WT mice; assay type: in vivo, mouse
Protocol: This model was described in detail in publication of the present inventor and colleagues, Gao, R et al., Am. J. Physiol. Mol. Physiol, 2015, 308:L847-L853.
WT mice were injected IP with vehicle, 1.5 mg/kg of CSP or control peptide (CP) 24 h after CLP injury. Sham-operated mice served as controls. Total RNA isolated from the lungs of these mice 72 h after CLP was quantitated for IL-17A mRNA by real-time PCR.
A2Cs were isolated from the lungs of these mice 72 h after CLP, and immunoblotted to assess changes in PAI-1, p53 and caspase-3 activation. All were increased by 72 h during CLP injury.
Mice were injected IP with CSP or control peptide (CP) 24 h after CLP injury. A2Cs isolated from these mice 72 h after CLP injury were immunoblotted for caveolin-1 and β-actin. Lysates of A2Cs from WT mice exposed to the above conditions were immunoprecipitated (IP) for PP2A-C and immunoblotted (IB) for caveolin-1 (Cav1) to assess their interaction.
Mice treated with or without CSP or CP 24 h after CLP injury were euthanized 72 h later and. lung tissues subjected to H&E staining to assess changes in lung inflammation. Lung homogenates and BAL fluids were analyzed for myeloperoxidase (MPO) to access PMN accumulation.
Mice were IP injected with CSP, CP or vehicle 24 h after CLP injury. Total RNA isolated from A2Cs of WT mice with or without CLP, CLP+CSP or CLP+CP 72 h after CLP induced ALI was reverse transcribed and subjected to real time PCR.
A2Cs isolated from mice with CLP, CLP+CSP or CLP+CP were immunoblotted for SP-C, thyroid transcription factor-1 (TTF-1) and β-actin. TTF-1 controls transcription of SP-C.
A2Cs isolated from mice 72 h after IP injection with CSP or CP alone without CLP injury and the lysates were immunoblotted for changes in SP-C expression. Lysates of A2Cs from uninjured (sham-operated) or CLP mice were also used for comparison.

[2] = tested on: AECs from nL overexpressing CAV1, p53 or PAI-1; experiment: AECs transduced with Ad-CAV1, Ad-p53 or Ad-PAI-1; assay type: cell-based, human
Protocol: Expression of CAV1, p53, or PAI-1 in AECs. AECs isolated from nL were separately transduced with Ad-CAV1 or Ad-p53 or Ad-PAI-1. AECs transduced with Ad-Ev were used as controls. In a separate experiment, AECs from nL in culture dishes were treated with Lv-p53 or Lv-PAI-1 shRNA to suppress its baseline expression before treating these cells with CSE. Naive AECs and AECs exposed to non-specific control shRNA was used as controls.

Row | Substance | IL-17A in lung tissues ([1]; 1.5 mg/kg IP 24 h after CLP, 72 h) | miR-34a expression in A2Cs (real time PCR, normalized to U6) ([1]; 72 h after CLP) | A2C apoptosis, p53 and PAI-1 expression ([1]; IP 24 h after CLP, 72 h) | A2C caveolin-1 interaction with PP2A-C (IP/IB) ([1]; IP 24 h after CLP, 72 h) | accumulation of PMN (MPO, H&E) ([1]; IP 24 h after CLP, 72 h) | SP-C expression by A2Cs ([1]; normal lungs, without CLP injury, 72 h after IP) | SP-C expression by A2Cs ([1]; sepsis-induced ALI) | inhibition of miR-34a in A2Cs ([1]; vs CLP or CLP+CP, 3 days after injury) [fold] | MUC5AC, HDAC6, FOXA3, LC3, FOXA2, acetylated alpha-tubulin; mucus hypersecretion and cilia disassembly ([2]; Ad-CAV1 transduced AECs) | p53 and PAI-1 expression ([2]; Ad-CAV1 transduced AECs) | MUC5AC, HDAC6, FOXA3, p53, LC3, acetylated alpha-tubulin ([2]; Ad-PAI-1 transduced AECs) | MUC5AC, acetylated alpha-tubulin, FOXA2, CAV1, p53, PAI-1 ([2]; Ad-p53 transduced AECs)
1 | DGIWKASFTTFTVTKYWFYR (listed as Homo sapiens) [CSP, 20 residue caveolin-1 scaffolding domain peptide] | suppressed sepsis induced IL-17A | significantly reduced | concurrent inhibition of A2C apoptosis and p53 and PAI-1 expression | inhibited the A2C caveolin-1 interaction with PP2A-C | significantly inhibited accumulation of PMN | induced SP-C expression | induction of SP-C expression | 7 |  |  |  | 
2 | FTTFTVT (listed as Homo sapiens) [CSP7, heptapeptide fragment of the caveolin-1 scaffolding domain peptide CSP] |  |  |  |  |  |  |  |  | can mitigate the mucus hypersecretion and cilia disassembly; also recorded: reduced CAV1-induced MUC5AC, HDAC6, FOXA3, and LC3 while restoring FOXA2 and acetylated alpha-tubulin | reduced the expression of p53 and PAI-1 | reversed | reduced MUC5AC and restored acetylated alpha-tubulin and FOXA2, while inhibiting CAV1, p53, and PAI-1
